Laboratory results: patent US20220251105A1, “METHODS OF TREATING A MK2-MEDIATED DISORDER” (Celgene CAR LLC, priority 2019, published 2022)
Like-named read-outs stand apart in the source and are kept apart here.

Assays:
[1] = test system: Mannan PsA in C57B1/6 mice; assay: mannan-induced psoriatic arthritis model; type: in vivo, mouse
TNF-α secretion by PBMCs = assay: ex vivo studies of PBMCs from healthy volunteers; type: cell-based, human; conditions: at TE of 60%
[2] = test system: cynomolgus monkeys (Macaca fascicularis); assay: pivotal 28-day repeat-dose toxicity study in monkeys; type: in vivo, cynomolgus monkey
[3] = as above; type: in vivo, cynomolgus monkey; conditions: both sexes, cynomolgus monkey, in vivo; monkeys, 28 days, highest dose used; read-out: NOAEL with respect to dose
[4] = test system: Ankylosing spondylitis in HLA B27 Tg rat; assay: HLA-B27/Huβ2m transgenic rat model of ankylosing spondylitis
From the text: Etanercept and tofactinib (Balagué et al. Profiling of dihydroorotate dehydrogenase, p38 and JAK inhibitors in the rat adjuvant-induced arthritis model: a translational study. Br J Pharmacol. 2012 June; 166(4):1320-32) were included in this rat study as comparator molecules.

Mouse/CD-1 = assay: exploratory single dose and 14-day repeat-dose toxicity study in mice; type: in vivo
Experimental: A single oral dose study with a 14-day repeat-dose phase was conducted in male and female mice. 250 mg/kg was selected as the highest dose for the repeat dose portion of the study.

[5] = single oral dose pharmacokinetics in Sprague Dawley rats; type: in vivo; conditions: rat
Experimental: (§1) In vitro and in vivo studies were conducted to characterize the absorption, PK, distribution, and metabolism of Compound 1. […] Additionally, plasma samples from single dose PK studies in mice and monkeys were evaluated for circulating metabolites.

[6] = exposure in 28- and 91-day monkey toxicology studies
[7] = steady-state plasma exposure in mouse disease models; type: in vivo; conditions: 3 mg/kg
[8] = toxicokinetics, 7-day monkey study; type: in vivo; conditions: cynomolgus monkey, plasma, oral, monkeys, read-out: Mean Day 7 AUC0-last
Experimental: (§2) In cynomolgus monkeys, a 7-day repeat dose toxicity study was conducted with doses up to 250 mg/kg/day. […] To aid in dose selection for a subsequent pivotal study, an additional study was conducted to determine the maximum feasible dose under optimal feeding conditions in cynomolgus monkeys. […] Dosing monkeys in the fasted state prior to dosing yielded more consistently higher exposures. Therefore, a dose of 375 mg/kg in 0.5% methyl cellulose (400 cps) and 0.1% Tween 80 administered to fasted monkeys was selected for the 14-day repeat-dose phase of the study, and was considered the maximum feasible dose.

[9] = exposure in 91-day mouse toxicology study; conditions: for AUC: mouse, plasma
bone resorption activity = bone resorption activity in vitro; type: cell-based
[10] = single oral dose pharmacokinetics in cynomolgus monkeys; type: in vivo, cynomolgus monkey
Experimental: as §1

[11] = 28- and 91-day toxicology studies in cynomolgus monkeys; conditions: cynomolgus monkey, in vivo, oral
[12] = test system: proinflammatory cytokines (TNF-α) in LPS-stimulated whole blood; assay: Phase 1 study, whole-blood ex vivo assay with LPS stimulation; type: cell-based, human
[13] = single intravenous dose pharmacokinetics in Sprague Dawley rats; type: in vivo; conditions: rat, plasma; for Vd: read-out: Vdss
Experimental: as §1

Monkey/Cynomolgus = assay: single dose (fasted/non-fasted) and 14-day repeat-dose study in cynomolgus monkeys; type: in vivo
Experimental: as §2

[14] = cynomolgus monkey, in vivo, 150 mg/kg/day
[15] = Sprague Dawley, plasma, female, single oral 30 mg/kg
[16] = Sprague Dawley, plasma, male, single oral 30 mg/kg
[17] = cynomolgus monkey, plasma, monkey, female, single oral 50 mg/kg
[18] = cynomolgus monkey, plasma, monkey, female, single oral 150 mg/kg
[19] = cynomolgus monkey, plasma, monkey, female, single oral 375 mg/kg
[20] = cynomolgus monkey, plasma, monkey, male, single oral 50 mg/kg
[21] = cynomolgus monkey, plasma, monkey, male, single oral 150 mg/kg
[22] = cynomolgus monkey, plasma, monkey, male, single oral 375 mg/kg

## CCOCc1cnc(Cl)nc1Oc1ccc2c(ccc3sc4c(c32)NC[C@@H](C)NC4=O)n1 [Compound 1]
[1]; 3 mg/kg, from PsASI-score time curve
  % Inhibition by PsASI: 36% by
[1]; endpoint PsASI score (ear thickness, skin flakiness, paw score combined)
  Minimally Efficacious Dose: 3 mg/kg
TNF-α secretion by PBMCs
  inhibition of TNF-α secretion: approximately 70%
[2]; cynomolgus monkey, in vivo, 50 mg/kg/day
  clinical observation, stool (non-adverse): discolored and/or watery stool
[2]; [14]
  clinical observation, urine (non-adverse): dose-dependent incidents of discolored urine
  microscopic finding, skeletal muscle (non-adverse): Minimal myofiber degeneration in skeletal muscle
[2]; monkeys, 50, 150, 375 mg/kg/day, 28 days
  mortality, body weight, ophthalmic examinations, electrocardiograms, clinical pathology, macroscopic observations, organ weights: no compound-related effects
[3]
  NOAEL at 28 days: 375 mg/kg/day
[4]; 100 mg/kg daily oral gavage
  Paw Swelling Inhibition (%): 65%
[4]; 20 and 100 mg/kg
  dose dependence of inhibition of paw swelling: dose-dependent inhibition of paw swelling
[4]; HLA-B27/Huβ2m rats
  cytokines IL-7, IL-1β; chemokines MCP-1, MIP-1α, KC; GM-CSF: A trend towards decreases
[4]; endpoint paw score
  Minimally Efficacious Dose (lowest tested dose determined to be effective): 20 mg/kg
Mouse/CD-1; mice, 15, 75, 250 mg/kg/day
  Findings, 14-day phase: no compound related findings were identified
Mouse/CD-1; mice, at 750 mg/kg
  Findings, single dose phase: Cold to touch and shaking
[5]; [15]
  AUC: 5940 ng·h/mL
  AUC(0-inf): 6610 ng·h/mL
  Cmax: 4960 ng/mL
[5]; Sprague Dawley, plasma, female, single oral 30 mg/kg, median, read-out: tmax
  Tmax: 0.5 h
[5]; [16]
  AUC: 1190 ng·h/mL
  AUC(0-inf): 1290 ng·h/mL
  Cmax: 1180 ng/mL
[5]; Sprague Dawley, plasma, male, single oral 30 mg/kg, median, read-out: tmax
  Tmax: 0.25 h
[5]; both sexes, Sprague Dawley, plasma, 30 mg/kg, rats, oral dosing, read-out: time to maximum plasma concentration (tmax)
  Tmax: 0.25 to 1 h
[5]; both sexes, Sprague Dawley, plasma, po, rats, doses in the range 15 to 375 mg/kg
  bioavailability: 8 to 28%
[5]; female, single oral 30 mg/kg
  F: 28%
[5]; male, single oral 30 mg/kg
  F: 11%
[6]; cynomolgus monkey, plasma, oral, 375 mg/kg/day
  AUC: 9120 ng·h/mL
[6]; monkey NOAEL AUCLST vs human 150 mg
  margin of monkey exposure over human 150-mg dose: 6.7 fold
[7]; BALB/c, mouse, CAIA in BALB/c mice
  AUC: 626 ng·h/mL
[7]; BALB/c, mouse, imiquimod ear swelling in BALB/c mice
  AUC: 917 ng·h/mL
[7]; C57B1/6, mouse, mannan PsA in C57B1/6 mice
  AUC: 467 ng·h/mL
[8]; 25 mg/kg/day
  AUC(0-t): 1090 ng·h/mL
[8]; 75 mg/kg/day
  AUC(0-t): 1170 ng·h/mL
[8]; 250 mg/kg/day
  AUC(0-t): 9440 ng·h/mL
[9]; mouse NOAEL AUCLST vs human 150 mg AUCLST
  margin of human 150 mg exposure below the mouse NOAEL: 21 fold
[9]; 100 mg/kg/day
  AUC: 28800 ng·h/mL
[9]; 750 mg/kg/day
  AUC: 144000 ng·h/mL
Bone resorption activity
  bone resorption activity: reduce bone resorption activity in vitro
[10]; both sexes, cynomolgus monkey, plasma, po, monkeys, doses in the range 15 to 375 mg/kg
  bioavailability: 8 to 28%
[10]; both sexes, cynomolgus monkey, plasma, monkeys, oral dosing, read-out: time to maximum plasma concentration (tmax)
  Tmax: 1 to 6 h
[10]; [17]
  AUC: 3810 ng·h/mL
  AUC(0-inf): 3840 ng·h/mL
  Cmax: 1040 ng/mL
[10]; cynomolgus monkey, plasma, monkey, female, single oral 50 mg/kg, median, read-out: tmax
  Tmax: 2 h
[10]; [18]
  AUC: 4750 ng·h/mL
  AUC(0-inf): 4820 ng·h/mL
  Cmax: 1200 ng/mL
[10]; cynomolgus monkey, plasma, monkey, female, single oral 150 mg/kg, median, read-out: tmax
  Tmax: 2 h
[10]; [19]
  AUC: 22600 ng·h/mL
  AUC(0-inf): 22700 ng·h/mL
  Cmax: 2530 ng/mL
[10]; cynomolgus monkey, plasma, monkey, female, single oral 375 mg/kg, median, read-out: tmax
  Tmax: 6 h
[10]; [20]
  AUC: 3680 ng·h/mL
  AUC(0-inf): 3710 ng·h/mL
  Cmax: 865 ng/mL
[10]; cynomolgus monkey, plasma, monkey, male, single oral 50 mg/kg, median, read-out: tmax
  Tmax: 2 h
[10]; [21]
  AUC: 8480 ng·h/mL
  AUC(0-inf): 8590 ng·h/mL
  Cmax: 1990 ng/mL
[10]; cynomolgus monkey, plasma, monkey, male, single oral 150 mg/kg, median, read-out: tmax
  Tmax: 1 h
[10]; [22]
  AUC: 13900 ng·h/mL
  AUC(0-inf): 14000 ng·h/mL
  Cmax: 1890 ng/mL
[10]; monkey, female, single oral 50 mg/kg
  F: 19%
[10]; monkey, female, single oral 150 mg/kg
  F: 8%
[10]; monkey, female, single oral 375 mg/kg
  F: 15%
[10]; monkey, male, single oral 50 mg/kg
  F: 18%
[10]; monkey, male, single oral 150 mg/kg
  F: 14%
[10]; monkey, male, single oral 375 mg/kg
  F: 9%
[11]
  NOAEL: 375 mg/kg/day
[12]; Part 1, single oral doses 10 mg to 400 mg, by 4 hours, LPS 24 hours
  TNF inhibition in the ex vivo assay: dose dependent increase
[12]; Part 2, 14 days of dosing, doses greater than 10 mg, maximal inhibition at 150 mg
  TNF-α in the ex vivo assay: sustained reductions in TNF-α
[13]; both sexes, iv, 5 mg/kg, rats, read-out: terminal half-life
  half-life: ≤ 1 h
[13]; female, single IV 5 mg/kg
  AUC: 3950 ng·h/mL
  AUC(0-inf): 3960 ng·h/mL
  clearance: 21.5 mL/min/kg
  Vd: 0.561 L/kg
[13]; female, single IV 5 mg/kg, read-out: t1/2,z (converted)
  half-life: 1.1 h
[13]; male, single IV 5 mg/kg
  AUC: 2020 ng·h/mL
  AUC(0-inf): 2020 ng·h/mL
  clearance: 42.2 mL/min/kg
  Vd: 0.648 L/kg
[13]; male, single IV 5 mg/kg, read-out: t1/2,z (converted)
  half-life: 0.23 h
Monkey/Cynomolgus; 375 and 500 mg/kg, fasted and non-fasted
  Findings, single dose phase: No compound-related findings
Monkey/Cynomolgus; fasted, 375 mg/kg/day
  Findings, 14-day phase: No compound-related findings
